Data: US20110166163A1, “SUBSTITUTED FUROPYRIMIDINES AND USE THEREOF” (BAYER SCHERING PHARMA AKTIENGESELLSCHAFT, priority 2007, published 2011)

target: T1, prostacyclin receptors (IP receptors) (Homo sapiens, UniProt P43119); test: Binding to prostacyclin receptors (IP receptors) of human thrombocyte membranes; conditions: displacement of 3 nM 3H-Iloprost, 60 min, room temperature
T1 construct: Thrombocyte membranes are obtained by centrifuging 50 ml of human blood; tissue Maco Pharma, Langen (buffy coats); host or cells: human thrombocyte (platelet) membranes from blood buffy coats
Protocol: Thrombocyte membranes are obtained by centrifuging 50 ml of human blood (Buffy coats with CDP Stabilizer, from Maco Pharma, Langen) for 20 min at 160×g. Remove the supernatant (platelet-rich plasma, PRP) and then centrifuge again at 2000×g for 10 min at room temperature. Resuspend the sediment in 50 mM tris(hydroxymethyl)amino-methane, which has been adjusted to a pH of 7.4 with 1 N hydrochloric acid, and store at −20° C. overnight. On the next day, centrifuge the suspension at 80 000×g and 4° C. for 30 min. Discard the supernatant. Resuspend the sediment in 50 mM tris(hydroxy-methyl)aminomethane/hydrochloric acid, 0.25 mM ethylene diamine tetraacetic acid (EDTA), pH 7.4, and then centrifuge once again at 80 000×g and 4° C. for 30 min. Take up the membrane sediment in binding buffer (50 mM tris(hydroxymethyl)-aminomethane/hydrochloric acid, 5 mM magnesium chloride, pH 7.4) and store at −70° C. until the binding test.
For the binding test, incubate 3 nM ^3H-Iloprost (592 GBq/mmol, from AmershamBioscience) for 60 min with 300-1000 μg/ml of human thrombocyte membranes per charge (max. 0.2 ml) in the presence of the test substances at room temperature. After stopping, add cold binding buffer to the membranes and wash with 0.1% bovine serum albumin. After adding Ultima Gold Scintillator, quantify the radioactivity bound to the membranes using a scintillation counter. The nonspecific binding is defined as radioactivity in the presence of 1 μM Iloprost (from Cayman Chemical, Ann Arbor) and is as a rule <25% of the bound total radioactivity. The binding data (IC50 values) are determined using the program GraphPad Prism Version 3.02.

T1 sequence (P43119 whole entry): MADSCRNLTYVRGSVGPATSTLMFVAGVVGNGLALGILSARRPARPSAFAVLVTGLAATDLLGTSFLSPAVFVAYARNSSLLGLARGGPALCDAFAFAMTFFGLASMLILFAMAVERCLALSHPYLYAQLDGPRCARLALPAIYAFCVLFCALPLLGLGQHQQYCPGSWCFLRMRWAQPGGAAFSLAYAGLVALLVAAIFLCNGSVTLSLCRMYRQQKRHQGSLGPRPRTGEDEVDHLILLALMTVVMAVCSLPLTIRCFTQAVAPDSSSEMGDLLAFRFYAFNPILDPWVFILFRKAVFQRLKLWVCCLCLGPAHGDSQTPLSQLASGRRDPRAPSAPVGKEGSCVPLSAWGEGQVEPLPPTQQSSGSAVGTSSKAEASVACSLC

Row | Compound | IC50 [nM]
1 | COc1ccc(-c2c(-c3cccs3)oc3ncnc(NCCCCCC(=O)O)c23)cc1 [Example 32, 6-{[5-(4-Methoxyphenyl)-6-(2-thienyl)furo[2,3-d]pyrimidin-4-yl]amino}hexanoic acid] | 134
2 | COc1ccc(-c2c(-c3ncccc3F)oc3ncnc(O[C@H](C)CCCCC(=O)O)c23)cc1 [Example 48] | 121
3 | C=Cc1ccc(-c2c(-c3ccccc3)oc3ncnc(NCCCCCC(=O)OC)c23)nc1 [Example 3, Methyl 6-{[6-phenyl-5-(5-vinylpyridin-2-yl)furo[2,3-d]pyrimidin-4-yl]amino}hexanoate] | 105
4 | CCc1ccc(-c2c(-c3ccccn3)oc3ncnc(OC[C@H](C)OCCC(=O)O)c23)cc1 [Example 51] | 193
5 | CC1CC=C(c2c(-c3ccccc3)oc3ncnc(O[C@H](C)CCCCC(=O)O)c23)CC1 (stereo partly drawn) [Example 26, (6R)-6-{[5-(4-Methylcyclohex-1-en-1-yl)-6-phenylfuro[2,3-d]pyrimidin-4-yl]oxy}heptanoic acid] | 1870
6 | CCc1ccc(-c2c(-c3ccccc3)oc3ncnc(NCCCCCC(=O)O)c23)nc1 [Example 18] | 125

Now those with a lower IC50, led by results:

Row | IC50 [nM] | Compound
7 | 63 | CCc1ccc(-c2c(-c3ccccc3)oc3ncnc(OC[C@H](C)COCC(=O)O)c23)nc1 [Example 46]
8 | 72 | COc1ccc(-c2c(C3=CCCCC3)oc3ncnc(O[C@H](C)CCCCC(=O)O)c23)cc1 [Example 24]
9 | 19 | CCc1ccc(-c2c(-c3ccccn3)oc3ncnc(O[C@H](C)CCCCC(=O)O)c23)cc1 [Example 49]
10 | 53 | COc1ccc(-c2c(-c3ccccn3)oc3ncnc(O[C@H](C)CCCCC(=O)O)c23)cc1 [Example 21]
11 | 56 | CCOC(=O)COC[C@@H](C)COc1ncnc2oc(-c3ccccn3)c(-c3ccc(OC)cc3)c12 [Example 37]
